By EC50 is commonly meant the concentration giving half of the maximal effect. For orientation: solubility means the concentration that dissolves in the medium under given conditions.

The target in series [1] is T1, rat amylin 3(a) receptor (rat calcitonin(a) receptor + rat RAMP3) (Rattus norvegicus, UniProt P32214+Q9JJ73).
T1 construct: expressed in transfected cells; host or cells: BHK tk'ts 13
T1 sequence (P32214 25-479 isoform P32214-2 limits assumed): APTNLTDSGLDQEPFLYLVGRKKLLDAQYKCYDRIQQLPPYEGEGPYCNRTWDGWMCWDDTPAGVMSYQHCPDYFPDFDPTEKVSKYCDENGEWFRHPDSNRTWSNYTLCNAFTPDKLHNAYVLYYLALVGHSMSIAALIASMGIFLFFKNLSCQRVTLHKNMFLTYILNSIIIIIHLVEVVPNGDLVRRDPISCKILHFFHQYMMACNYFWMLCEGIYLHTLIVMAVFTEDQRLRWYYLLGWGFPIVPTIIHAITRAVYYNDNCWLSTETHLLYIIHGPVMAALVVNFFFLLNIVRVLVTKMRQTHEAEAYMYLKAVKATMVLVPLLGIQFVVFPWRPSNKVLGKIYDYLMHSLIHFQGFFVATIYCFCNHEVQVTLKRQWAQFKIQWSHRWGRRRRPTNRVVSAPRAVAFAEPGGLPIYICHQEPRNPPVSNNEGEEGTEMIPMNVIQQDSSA
T1 sequence (Q9JJ73 23-147 partner): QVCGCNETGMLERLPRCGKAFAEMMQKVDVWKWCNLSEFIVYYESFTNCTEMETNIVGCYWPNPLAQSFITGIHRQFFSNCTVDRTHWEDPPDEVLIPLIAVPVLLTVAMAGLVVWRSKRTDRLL
Put plainly: Assay (II)b functional cAMP FlashPlate assay, rat amylin receptor. Type of series: cell-based. The conditions noted are these: Table 11. The source says: (§1) Assay (II)b—Rat Calcitonin and Rat Amylin Receptor Assays
(§2) Activation of calcitonin and amylin (coexpression of calcitonin receptor and receptor activity modifying proteins (RAMP)) receptors lead to increased intracellular concentrations of cAMP. In order to quantify the cAMP levels in transiently transfected cells the Adenylyl Cyclase Activation FlashPlate® Assay from […] was used. The basic principle of the FlashPlate® Assay is a competition between radioactive and non-radioactive cAMP generated by the cells for a fixed number of binding sites.
(§3) Construction of rat calcitonin(a)—and rat amylin 3(a)-receptor cells.
(§4) BHK tk'ts 13 cells were transiently transfected with either rat calcitonin (a) receptor or amylin 3 (a) receptor (rat calcitonin(a) receptor+ rat RAMP3) using FuGENE® 6 (ROCHE), according to the manufacturers recommendations.
(§5) 24 hours after transient transfection the cells (rat calcitonin(a)—or rat amylin 3(a)—receptor cells) were added (100.000 cells/well) to the 96 well FlashPlates® with samples or standard in FlashPlate stimulation buffer with IBMX and incubated for 30 min. Detection mix was created according to manufacturers protocol and scintillation measured after 3 h of incubation on TopCounter™ (Packard).

In series [2] the target is T2, rat calcitonin (a) receptor (Rattus norvegicus, UniProt P32214).
T2 construct: expressed in transfected cells; host or cells: BHK tk'ts 13
T2 sequence (P32214 25-479 isoform P32214-2 limits assumed): T1 sequence (P32214 25-479 isoform P32214-2 limits assumed)
Put plainly: Assay (II)b functional cAMP FlashPlate assay, rat calcitonin receptor. The note with it: Table 11; read-out: CTa receptor rat EC50. Type of series: cell-based.
Excerpt: as §1, §2, §3, §4, §5

For series [3], the target named is T3, human calcitonin receptor (Homo sapiens, UniProt P30988).
T3 construct: expressed in transfected cells; host or cells: BHK570
T3 sequence (P30988 25-474): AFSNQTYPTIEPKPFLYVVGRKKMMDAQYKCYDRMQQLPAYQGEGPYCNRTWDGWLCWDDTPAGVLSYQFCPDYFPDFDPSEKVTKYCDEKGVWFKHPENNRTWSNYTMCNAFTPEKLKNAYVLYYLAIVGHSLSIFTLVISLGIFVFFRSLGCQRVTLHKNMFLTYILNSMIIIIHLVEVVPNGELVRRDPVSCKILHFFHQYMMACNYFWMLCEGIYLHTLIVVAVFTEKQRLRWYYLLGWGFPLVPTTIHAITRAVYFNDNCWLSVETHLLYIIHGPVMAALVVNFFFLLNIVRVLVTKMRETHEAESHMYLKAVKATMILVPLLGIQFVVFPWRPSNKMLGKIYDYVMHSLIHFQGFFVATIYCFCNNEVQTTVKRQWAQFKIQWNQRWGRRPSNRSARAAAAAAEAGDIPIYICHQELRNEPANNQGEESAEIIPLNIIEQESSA
Nature of the series: Assay (II)a functional CRE-luciferase assay, human calcitonin receptor. The series is classed as cell-based. The note with it: Table 7; human calcitonin (CTa) receptor.

The nature of series [4]: Assay (IV) determination of solubility. The series is classed as physicochemical. In short, it runs like this:
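Polypeptide in water (~500 nmol/ml) mixed 1:1 with 100 mM glycylglycine (pH 3.0–5.0) or bistrispropane (pH 6.0–8.0) buffers. Held 18 hours at room temperature, then centrifuged. Polypeptide remaining in solution quantified by HPLC.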

Series [5] deals with T4, human amylin receptor (amylin 3(a) receptor: human calcitonin receptor + RAMP-3) (Homo sapiens, UniProt O60896+P30988).
T4 construct: expressed in transfected cells; host or cells: BHK570
T4 sequence (P30988 25-474): T3 sequence (P30988 25-474)
T4 sequence (O60896 24-148 partner): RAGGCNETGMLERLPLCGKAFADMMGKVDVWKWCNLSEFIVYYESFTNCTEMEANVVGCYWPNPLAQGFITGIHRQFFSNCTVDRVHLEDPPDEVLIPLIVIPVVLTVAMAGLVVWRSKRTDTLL
Put plainly: Assay (II)a functional CRE-luciferase assay, human amylin receptor. Type of series: cell-based. The note with it: Table 2; BHK amylin 3(a)-receptor/CRE-luc cells.

[6] abbreviates: bistrispropane buffer, pH 6, pH 6.0, read-out: Solubility pH 6.0.
Setting [7] is: bistrispropane buffer, pH 6.5, pH 6.5, read-out: Solubility pH 6.5.
[8] abbreviates: bistrispropane buffer, pH 7, pH 7.0, read-out: Solubility pH 7.0.
[9] abbreviates: bistrispropane buffer, pH 7.5, pH 7.5, read-out: Solubility pH 7.5.
Where [10] appears, read: bistrispropane buffer, pH 8, pH 8.0, read-out: Solubility pH 8.0.
Where [11] appears, read: glycylglycine buffer, pH 3, pH 3.0, read-out: Solubility pH 3.0.
The mark [12] stands for this setting: glycylglycine buffer, pH 4, pH 4.0, 18 hours at room temperature, Table 2, read-out: Solubility pH 4.0.
The mark [13] stands for this setting: glycylglycine buffer, pH 4, pH 4.0, read-out: Solubility pH 4.0.
The mark [14] stands for this setting: glycylglycine buffer, pH 5, pH 5.0, read-out: Solubility pH 5.0.

Values after ≈ are worked out from the molar mass of the structure shown. Read-outs that look alike come from different tables or passages of the source. Starred links: 1 amine or outer side, 2 acyl side, 3 side chain; linkers in the order of their positions; H or OH if unused. Positions of bridges follow the written chain, without caps; N, C: chain ends. Residues, ends and D or L forms follow the SMILES beside them. *: point of attachment. C20 diacid = O=C(O)CCCCCCCCCCCCCCCCCCC(=O)*; γGlu = O=C(O)[C@H](CCC(=O)[*:2])N[*:1]

For the compound `CC[C@H](C)[C@H](NC(=O)[C@@H]1CCCN1C(=O)CNC(=O)[C@H](Cc1ccccc1)NC(=O)[C@H](CC(N)=O)NC(=O)[C@H](CC(N)=O)NC(=O)[C@H](CO)NC(=O)[C@H](CO)NC(=O)[C@H](Cc1cnc[nH]1)NC(=O)[C@H](Cc1cnc[nH]1)NC(=O)[C@H](CC(C)C)NC(=O)[C@H](Cc1ccccc1)NC(=O)[C@H](CCC(=O)O)NC(=O)[C@H](C)NC(=O)[C@H](CC(C)C)NC(=O)[C@H](CCCNC(=N)N)NC(=O)[C@H](CCC(N)=O)NC(=O)[C@@H](NC(=O)[C@H](C)NC(=O)[C@@H]1CSSC[C@H](NC(=O)[C@H](Cc2cnc[nH]2)NC(=O)[C@H](Cc2cnc[nH]2)NC(=O)CC[C@H](NC(=O)CCCCCCCCCCCCCCCCCCC(=O)O)C(=O)O)C(=O)N[C@@H](CC(N)=O)C(=O)N[C@@H]([C@@H](C)O)C(=O)N[C@@H](C)C(=O)N[C@@H]([C@@H](C)O)C(=O)N1)[C@@H](C)O)C(=O)N[C@@H](CC(C)C)C(=O)N1CCC[C@H]1C(=O)N1CCC[C@H]1C(=O)N[C@H](C(=O)N[C@@H](CC(N)=O)C(=O)N[C@H](C(=O)NCC(=O)N[C@@H](CO)C(=O)N[C@@H](CC(N)=O)C(=O)N[C@H](C(=O)N[C@@H](Cc1ccc(O)cc1)C(N)=O)[C@@H](C)O)C(C)C)[C@@H](C)O` [Example 17, N-alpha-[(S)-4-Carboxy-4-(19-carboxynonadecanoylamino)butyryl]-His-[His1,Glu14,His17]-pramlintide] ({C20 diacid-γGlu}-HHCNTATCATQRLAEFLHHSSNNFGPILPPTNVGSNTY-NH2; disulfide 3-8), the EC50 was 0.147 nM in series [1], 0.221 nM in series [2], 0.166 nM in series [3] and 0.111 nM in series [5]. The solubility at 18 h in series [4] (setting [6]) is 160 µM (≈ 736 µg/mL); in series [4] (setting [7]), 66 µM (≈ 304 µg/mL); in series [4] (setting [8]) it was 88 µM (≈ 405 µg/mL); in series [4] (setting [9]), more than 200 µM; in series [4] (setting [10]) it was more than 200 µM; in series [4] (setting [11]) it was more than 200 µM. In addition, the solubility at 18 h in series [4] (setting [12]), in series [4] (setting [13]) and in series [4] (setting [14]) was more than 200 µM each time.

As to `CC(C)C[C@H](NC(=O)[C@H](CCCNC(=N)N)NC(=O)[C@H](CCC(N)=O)NC(=O)[C@@H](NC(=O)[C@H](C)NC(=O)[C@@H]1CSSC[C@H](NC(=O)[C@H](Cc2c[nH]cn2)NC(=O)[C@H](Cc2c[nH]cn2)NC(=O)[C@H](Cc2c[nH]cn2)NC(=O)CC[C@H](NC(=O)CCCCCCCCCCCCCCCCCCC(=O)O)C(=O)O)C(=O)N[C@@H](CC(N)=O)C(=O)N[C@@H]([C@@H](C)O)C(=O)N[C@@H](C)C(=O)N[C@@H]([C@@H](C)O)C(=O)N1)[C@@H](C)O)C(=O)N[C@@H](C)C(=O)N[C@@H](CCC(=O)O)C(=O)N[C@@H](Cc1ccccc1)C(=O)N[C@@H](CC(C)C)C(=O)N[C@@H](Cc1c[nH]cn1)C(=O)N[C@@H](Cc1c[nH]cn1)C(=O)N[C@@H](CO)C(=O)N[C@@H](CO)C(=O)N[C@@H](CC(N)=O)C(=O)N[C@@H](CC(N)=O)C(=O)N[C@@H](Cc1ccccc1)C(=O)NCC(=O)N[C@@H](C)C(=O)N1CCC[C@H]1C(=O)N[C@@H](CC(C)C)C(=O)N[C@@H](CO)C(=O)N[C@@H](CO)C(=O)N[C@H](C(=O)N[C@@H](CC(N)=O)C(=O)N[C@H](C(=O)NCC(=O)N[C@@H](CO)C(=O)N[C@@H](CC(N)=O)C(=O)N[C@H](C(=O)N[C@@H](Cc1ccc(O)cc1)C(N)=O)[C@@H](C)O)C(C)C)[C@@H](C)O` [Example 19, N-alpha-[(S)-4-Carboxy-4-(19-carboxynonadecanoylamino)butyryl]-His-His-[His1,Glu14,His17,Ala25,Pro26,Ser28,Ser29]-pramlintide] ({C20 diacid-γGlu}-HHHCNTATCATQRLAEFLHHSSNNFGAPLSSTNVGSNTY-NH2; disulfide 4-9 (inferred); C-terminus assumed), the concentration for a half-maximal effect (EC50) in series [1] came to 0.132 nM; in series [2], 0.824 nM; in series [3] it was 0.31 nM; in series [5] it was 0.105 nM. For the same compound, the solubility at 18 h in series [4] (setting [6]) was 175 µM (≈ 819 µg/mL); in series [4] (setting [7]), 35 µM (≈ 164 µg/mL); in series [4] (setting [8]), 6 µM (≈ 28.1 µg/mL); in series [4] (setting [9]), 61 µM (≈ 285 µg/mL); in series [4] (setting [10]), 158 µM (≈ 739 µg/mL); in series [4] (setting [11]) it was more than 200 µM. The values for the solubility at 18 h in series [4] (setting [12]), in series [4] (setting [13]) and in series [4] (setting [14]) were more than 200 µM, more than 200 µM and 155 µM (≈ 725 µg/mL), respectively.
